Results from ChEMBL document CHEMBL1201862, “PubChem BioAssay data set” (2004).
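Five concentrations, 48 hours, 96-well plates. Here, GI50 denotes the concentration required for 50% inhibition of growth.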 Calls of active or inactive are those of the source. No stated cut-off is given here; in the data, active = GI50 up to about 1.1 µM and inactive = higher.

Experiments:
Experiment in all cases: NCI-60 cell line screen, 48 h
DLD-1 = test system: DLD-1
DMS-273 = test system: DMS-273
KM-20L2 = test system: KM-20L2
DMS-114 = test system: DMS-114
M19-MEL = test system: M19-MEL
SNB-78 = test system: SNB-78
XF498 = test system: XF498
RXF 631 = test system: RXF 631
HOP-18 = test system: HOP-18

Measured: GI50

CCc1cccc(C(C)CC)c1NC(=O)C(=O)Cc1nc2ccccc2o1 (configuration not stated)
inactive: DLD-1 > 50 µM | DMS-273 > 50 µM | KM-20L2 > 50 µM | DMS-114 > 50 µM | M19-MEL > 50 µM | SNB-78 > 50 µM | XF498 > 50 µM

O=[N+]([O-])c1cccc(C2=NOC3C4CCC(C4)C23)c1 (configuration not stated)
inactive: RXF 631 > 100 µM | DLD-1 > 100 µM | DMS-273 > 100 µM | HOP-18 > 100 µM | DMS-114 > 100 µM | M19-MEL > 100 µM

C#CCN(N=O)C(=O)NC(CCCCNC(=O)OCc1ccccc1)C(=O)OCc1ccccc1 (configuration not stated)
inactive: DLD-1 20.1 µM | DMS-273 43.9 µM | KM-20L2 54.6 µM | HOP-18 20 µM | DMS-114 19.8 µM | M19-MEL 34.2 µM | SNB-78 34.1 µM

COCCOCOC(CCCCO)c1cc(C)c(O[Si](C)(C)C(C)(C)C)c(C)c1 (configuration not stated)
inactive: KM-20L2 4.72 µM | HOP-18 16.9 µM | DMS-114 2.47 µM | M19-MEL 5.11 µM

CC1=NN(c2ccccc2)C(=O)C1=C1SCCS1
inactive: RXF 631 > 89.7 µM | DLD-1 32.6 µM | DMS-273 > 58.3 µM | KM-20L2 > 65.6 µM | HOP-18 36.3 µM | DMS-114 > 46.3 µM | M19-MEL 41.8 µM | SNB-78 > 100 µM | XF498 32.7 µM

N#CC1(C#N)C(C#N)(C#N)C12CCCCCC2
inactive: DLD-1 4.1 µM | DMS-273 22.4 µM | KM-20L2 16.6 µM | HOP-18 16.4 µM | DMS-114 21.1 µM | M19-MEL 20.5 µM | SNB-78 13.3 µM

O=C1C(Cl)=C(N2CCN(C3=C(Cl)C(=O)c4ccccc4C3=O)CC2)C(=O)c2ccccc21
inactive: RXF 631 1.85 µM | DMS-273 2.14 µM | KM-20L2 3.78 µM | DMS-114 1.34 µM | M19-MEL 1.53 µM | XF498 1.36 µM
active: DLD-1 0.428 µM | SNB-78 0.61 µM

CN(C)CCNC(=O)c1cccc2c1nc(-c1ccncc1)c1ccccc12
inactive: DLD-1 2.38 µM | HOP-18 9.91 µM | DMS-114 2.84 µM | M19-MEL 2.82 µM | SNB-78 5.9 µM
active: DMS-273 0.767 µM

Cc1cc(N(CCC#N)CCC#N)ccc1/C=C1N=C(/C=C/c2ccccc2)N(c2ccc(S(N)(=O)=O)cc2)C\1=O
inactive: RXF 631 > 100 µM | DLD-1 > 100 µM | KM-20L2 > 100 µM | DMS-114 > 100 µM | M19-MEL > 100 µM | SNB-78 > 100 µM

CCOP(=O)(OCC)C(C(=O)OC)C(=O)C(=O)Nc1c(C)cc(Br)cc1C (configuration not stated)
inactive: RXF 631 > 100 µM | DLD-1 > 100 µM | DMS-273 > 100 µM | KM-20L2 > 100 µM | HOP-18 49.7 µM | DMS-114 > 100 µM | M19-MEL > 100 µM | SNB-78 > 100 µM | XF498 > 100 µM

COc1ccc2oc3c4c2c1CCC4CCC3=O (configuration not stated)
inactive: RXF 631 > 100 µM | DMS-273 > 100 µM | DMS-114 > 100 µM | M19-MEL > 100 µM | SNB-78 > 100 µM | XF498 > 100 µM

O=C(Cc1ccccc1)N/N=C(\C1=Nc2ccc([N+](=O)[O-])cc2NC1O)C(O)c1ccc([N+](=O)[O-])cc1 (configuration not stated)
inactive: RXF 631 > 100 µM | DLD-1 > 100 µM | KM-20L2 > 100 µM | HOP-18 > 100 µM | M19-MEL > 100 µM | SNB-78 > 100 µM | XF498 > 100 µM

Cc1c(C(=O)/C=C/c2ccco2)[n+]([O-])c2ccccc2[n+]1[O-]
inactive: RXF 631 18.6 µM | DLD-1 > 100 µM | DMS-273 > 100 µM | KM-20L2 > 100 µM | HOP-18 > 100 µM | DMS-114 73.5 µM | M19-MEL > 100 µM | SNB-78 > 100 µM | XF498 > 100 µM

COc1ccc2nc(-c3ccc(OCc4ccccc4)cc3)ccc2c1
inactive: DLD-1 > 100 µM | KM-20L2 > 100 µM | HOP-18 > 100 µM | DMS-114 > 100 µM | M19-MEL > 100 µM | SNB-78 > 100 µM | XF498 > 100 µM

COc1ccc(C(=O)Cc2c(C(=O)c3ccccc3)c3ccccc3n2C(=O)c2ccccc2)cc1
inactive: DLD-1 74 µM | DMS-273 5.38 µM | KM-20L2 > 100 µM | DMS-114 50.7 µM | M19-MEL > 100 µM | XF498 > 100 µM

COC(=O)CCC(NC(=S)N/N=C(\C)c1cnc2ccccc2n1)C(=O)OC (configuration not stated)
inactive: RXF 631 52.6 µM | DLD-1 29 µM | DMS-273 38.5 µM | KM-20L2 15.5 µM | HOP-18 39.4 µM | SNB-78 > 100 µM | XF498 > 100 µM

COc1ccc2c(NCCCCCCNc3c4ccccc4nc4cc(OC)ccc34)c3ccccc3nc2c1
inactive: HOP-18 2.15 µM
active: RXF 631 0.126 µM | DLD-1 0.242 µM | DMS-273 0.0313 µM | KM-20L2 0.065 µM | DMS-114 0.1 µM | M19-MEL 0.0484 µM | SNB-78 0.12 µM

CC1=C(C(=O)Nc2cccc(Cl)c2)C(c2ccccc2F)C(C(=O)Nc2cccc(Cl)c2)=C(C)N1
inactive: RXF 631 10.1 µM | DLD-1 10.4 µM | DMS-273 11.9 µM | KM-20L2 7.46 µM | DMS-114 6.32 µM | M19-MEL 11.6 µM | SNB-78 18.7 µM

Cc1ccc(C(=O)N(C(C)C)C(C)C)cc1/N=N/N(C)C
inactive: DLD-1 77.4 µM | DMS-273 > 100 µM | KM-20L2 > 100 µM | M19-MEL > 100 µM | SNB-78 35.9 µM

BrC1(Br)C2/C=C\CCCCC21 (configuration not stated)
inactive: DMS-273 > 100 µM | KM-20L2 > 100 µM | HOP-18 > 100 µM | M19-MEL > 100 µM | SNB-78 > 100 µM | XF498 > 100 µM

CCCN1CC=CCC1
inactive: DLD-1 > 100 µM | KM-20L2 > 100 µM | HOP-18 > 100 µM | DMS-114 > 100 µM | M19-MEL > 100 µM | XF498 > 100 µM

CCC1CN2CCc3c([nH]c4ccccc34)C2C[C@@H]1CC(=O)N(C)C (some centres not stated)
inactive: DLD-1 > 100 µM | DMS-273 > 100 µM | KM-20L2 > 100 µM | HOP-18 > 100 µM | DMS-114 > 100 µM | M19-MEL > 100 µM | SNB-78 > 100 µM | XF498 > 100 µM

O=C(O)CNS(=O)(=O)c1ccc(NCc2ccccc2)cc1
inactive: DLD-1 > 100 µM | DMS-273 > 100 µM | KM-20L2 > 100 µM | HOP-18 > 100 µM | DMS-114 > 100 µM | M19-MEL > 100 µM | SNB-78 > 100 µM | XF498 > 100 µM

COc1ccc(/C=C\c2cc(OC)c3c(c2)OCO3)c(O)c1O
inactive: DLD-1 6.28 µM | DMS-273 20 µM | KM-20L2 23.2 µM | HOP-18 20.6 µM | DMS-114 2.88 µM | M19-MEL 6.19 µM | SNB-78 3.94 µM | XF498 11.1 µM
